Laboratory results published in paper PMC3688238, “The effect of different dosing regimens of motesanib on the gallbladder: a randomized phase 1b study in patients with advanced solid tumors” (BMC Cancer, 2013).

What was measured:
Format in all cases: in vivo, human
[1] = tested on: gallbladder; assay: Gallbladder size (volume) by ultrasound, independent central review; conditions: for Mean change in gallbladder volume after discontinuation of motesanib (95% CI): last on-treatment to last available off-treatment measurement; for Gallbladder volume, mean change from baseline (95% CI): ultrasound
Procedure: (§1) Gallbladder volume was assessed by ultrasound after a ≥8 hours fast at screening (within 21 days prior to randomization) and before the motesanib morning dose on days 8 and 15 of cycle 1, on day 1 of cycles 2 and 3, every 6 weeks thereafter, and at the safety follow-up (30 to 33 days after the last dose). Ultrasound was performed weekly when motesanib was withheld and weekly for 4 weeks following treatment discontinuation. Gallbladder ultrasound measurements were assessed by independent central radiologic review (MedQIA, Los Angeles, CA, USA). Gallbladder ejection fraction was assessed by investigators or other study site personnel using CCK-HIDA at screening (within 21 days of randomization), on day 1 of cycle 2, day 1 of cycle 6 (±3 days), and at the safety follow-up. Study-specific training and standard operating procedures were supplied to all radiology technicians.
The ultrasound and CCK-HIDA gallbladder analysis sets, which included all randomized patients who received ≥1 dose of motesanib and had baseline and ≥1 evaluable follow-up ultrasound or CCK-HIDA, respectively, were used for the principal analysis of endpoints related to gallbladder size and characteristics. For each dosing scheme, estimates for the mean and maximum change from baseline in gallbladder size (volume as measured by ultrasound) and function (ejection fraction as measured by CCK-HIDA scan) were calculated. Mean change from baseline was calculated by taking the difference between the baseline gallbladder measurement and the average gallbladder measurement observed during study treatment. The mean (95% CI) difference was then calculated across all patients for each treatment arm, and for the whole study population. Maximum change from baseline in gallbladder size or volume was calculated by taking the difference between the baseline gallbladder measurement and the maximum gallbladder measurement observed during study treatment. The mean (95% CI) maximum change from baseline was then calculated across all patients for each treatment arm, and for the whole study population. Reversibility of changes in gallbladder volume and ejection fraction were evaluated calculating changes between the last on-treatment measurement and the last available measurement following the discontinuation of motesanib. Covariates (treatment, age, sex, body mass index, and nonsteroidal anti-inflammatory drug [NSAID] use) were explored in a linear regression model for potential relationships with gallbladder volume. Objective response was assessed for the safety analysis set, including only patients with measureable disease at baseline.

[2] = tested on: patients with advanced metastatic solid tumors; assay: Adverse events (NCI CTCAE version 3.0)
Procedure: AEs occurring during treatment and through the safety follow-up were recorded and graded according to the National Cancer Institute Common Terminology Criteria for Adverse Events (version 3.0).

[3] = tested on: gallbladder; assay: Specific gallbladder findings per independent ultrasound review
Procedure: as §1

[4] = Arm B, 75 mg BID 2 wk on/1 wk off, n = 9
[5] = Arm B, 75 mg BID 2 wk on/1 wk off, n = 11
[6] = Arm C, 75 mg BID 5 d on/2 d off, n = 8
[7] = Arm C, 75 mg BID 5 d on/2 d off, n = 11
[8] = Arm B, 75 mg BID 2 wk on/1 wk off
[9] = Arm C, 75 mg BID 5 d on/2 d off
[10] = Arm A, 125 mg QD, post baseline, n = 23
[11] = Arm A, 125 mg QD, post treatment, n = 16
[12] = Arm B, 75 mg BID 2 wk on/1 wk off, post baseline, n = 11
[13] = Arm B, 75 mg BID 2 wk on/1 wk off, post treatment, n = 9
[14] = Arm C, 75 mg BID 5 d on/2 d off, post baseline, n = 11

## CC1(C)CNc2cc(NC(=O)c3cccnc3NCc3ccncc3)ccc21 [Motesanib]
[1]; Arm A, 125 mg QD, n = 16
  Mean change in gallbladder volume from baseline to last available off-treatment measurement (95% CI): 10.4 (−10.0 to 30.8) cc
  Mean change in gallbladder volume after discontinuation of motesanib (95% CI): −8.5 (−38.8 to 21.7) cc
[1]; Arm A, 125 mg QD, n = 23
  Gallbladder volume, maximum change from baseline (95% CI): 45.6 (20.2–70.9) cc
  Gallbladder volume, mean change from baseline (95% CI): 17.7 (6.4–28.9) cc
[1]; [4]
  Mean change in gallbladder volume from baseline to last available off-treatment measurement (95% CI): −14.4 (−31.1 to 2.4) cc
  Mean change in gallbladder volume after discontinuation of motesanib (95% CI): −16.2 (−37.4 to 5.1) cc
[1]; [5]
  Gallbladder volume, maximum change from baseline (95% CI): 74.4 (41.3–107.4) cc
  Gallbladder volume, mean change from baseline (95% CI): 26.8 (11.5–42.1) cc
[1]; [6]
  Mean change in gallbladder volume from baseline to last available off-treatment measurement (95% CI): 7.1 (−28.9 to 43.0) cc
  Mean change in gallbladder volume after discontinuation of motesanib (95% CI): −7.4 (−67.1 to 52.4) cc
[1]; [7]
  Gallbladder volume, maximum change from baseline (95% CI): 67.3 (30.8–103.8) cc
  Gallbladder volume, mean change from baseline (95% CI): 26.9 (8.8–45.1) cc
[1]; across all patients
  Gallbladder volume change from baseline during treatment, median: 17.3 cc
  Gallbladder volume change from baseline during treatment, range: −43.3 to 83.2 cc
[1]; across all patients, from 38.6 cc at baseline
  Gallbladder volume increase from baseline during treatment, mean: 22.2 cc
[2]; Arm A, 125 mg QD
  Incidence of grade ≥3 treatment-related AEs: 32%
[2]; Arm A, approximately 1 month after treatment initiation
  Patients with serious grade 3 acute cholecystitis resulting in cholecystectomy: one
[2]; Arm A, grades 1, 2, 3, n = 1 each
  Patients with cholecystitis that resolved after treatment discontinuation: Three
[2]; Arm A, ongoing at safety follow-up
  Patients with grade 1 gallbladder disorders (gallbladder dysfunction, gallbladder wall thickening): two
[2]; [8]
  Incidence of grade ≥3 treatment-related AEs: 42%
[2]; [9]
  Incidence of grade ≥3 treatment-related AEs: 33%
[2]; all patients
  Patients with right upper quadrant pain during the study: Twelve
[2]; all patients (one each in Arms B and C)
  Patients with grade 4 AEs: Two
[2]; occurred only in Arm A, 125 mg QD
  Gallbladder toxicity events (all considered treatment-related), incidence: 12%
[3]; Arm A, 125 mg QD
  Incidence of biliary sludge: 39%
[3]; Arm A, 125 mg QD, post baseline (any point during treatment), n = 23
  Gallstones, patient incidence: 4 (17) n (%)
[3]; [10]
  Common duct dilation, patient incidence: 0 (0) n (%)
  Pericholecystic fluid, patient incidence: 1 (4) n (%)
  Sludge, patient incidence: 9 (39) n (%)
[3]; Arm A, 125 mg QD, post treatment (last available off-treatment assessment), n = 16
  Gallstones, patient incidence: 3 (19) n (%)
[3]; [11]
  Common duct dilation, patient incidence: 0 (0) n (%)
  Pericholecystic fluid, patient incidence: 0 (0) n (%)
  Sludge, patient incidence: 4 (25) n (%)
[3]; [8]
  Incidence of biliary sludge: 36%
[3]; [12]
  Common duct dilation, patient incidence: 0 (0) n (%)
  Gallstones, patient incidence: 2 (18) n (%)
  Pericholecystic fluid, patient incidence: 1 (9) n (%)
  Sludge, patient incidence: 4 (36) n (%)
[3]; [13]
  Common duct dilation, patient incidence: 0 (0) n (%)
  Gallstones, patient incidence: 2 (22) n (%)
  Pericholecystic fluid, patient incidence: 0 (0) n (%)
  Sludge, patient incidence: 4 (44) n (%)
[3]; [9]
  Incidence of biliary sludge: 27%
[3]; [14]
  Common duct dilation, patient incidence: 0 (0) n (%)
  Gallstones, patient incidence: 0 (0) n (%)
  Pericholecystic fluid, patient incidence: 0 (0) n (%)
